Test results from patent US20240109877A1, “PYRIMIDINES FOR DEGRADING BRUTON'S TYROSINE KINASE” (AbbVie Inc., priority 2022, published 2024).

Columns and labels:
[1] = target: BTK in mouse bone marrow (Mus musculus (Mouse), UniProt P35991); assay: Mouse Bone Marrow Assay (MSD ELISA of BTK degradation in mouse bone marrow); type: in vivo; conditions: female C57BL/6J mice, single dose of Dose A, bone marrow collected after 24 hours, % remaining BTK in vehicle versus treated samples
Description: Female C57BL/6J mice (Jackson Laboratories) were used for this study. Compounds or vehicle/control were prepped with EtOH; PEG-400; Phosal 53 MCT (10:30:60, v/v). Four mice were tested per compound or vehicle/control. On Day 1, mice were administered a single dose of Dose A. On Day 2 (after 24 hours), tissue (bone marrow) was collected from one hind leg per mouse.
An MSD (Meso Scale Discovery) ELISA (enzyme-linked immunosorbent assay) based assay was used to determine BTK degradation in mouse bone marrow. The following materials and equipment were used: 10% NP40 solution (nonionic polyoxyethylene surfactant, ThermoFisher, cat no. 28324); protease inhibitor mini tablet (Roche, cat no. 05 892 970 001); PhosphoSTOP™ tablet (Roche, cat no. 04 906 837 001); Pierce™ BCA Protein Assay Kit (Thermofisher, Cat No. 23225); Precellys® 2 mL lysing tube with 2.8 mm beads (VWR, cat no. 10032-756); Bertin Precellys® 24/Cryolys ® cooling system; 96-well MSD streptavidin pre-coated plates (MSD, cat no. L15SA-1); MSD Blocker A (MSD, cat no. R93BA-4); capture antibody, biotinylated BTK mAb (BD Biosciences, cat no. 624008; custom order); primary detection antibody, BTK RpAb (rabbit polyclonal antibody, CST, cat no. 8547S, D3H5 clone); secondary detection antibody, anti-Rabbit-Sulfo-Tag (MSD, cat no. R32AB-1); read Buffer, 4× (MSD, cat no. R92TC-1); recombinant BTK protein (Thermofisher, cat no. PR5442A); MSD Tris Wash Buffer (10×) (MSD, cat no. R61TX-1); PBS (phosphate-buffered saline); deionized water (diH2O); Lysis Buffer [0.2% NP40 in PBS+Protease Inhibitor tablet (1 tablet/10 mL)+PhosphoSTOP tablet (1 tablet/10 mL)]; 3% MSD Blocker A [MSD Blocker A+450 mL diH2O+50 mL]; and 10× MSD Tris Wash Buffer.
Lysis buffer [(PBS+0.2% NP40+PI (protease inhibitor)+PhosphoSTOP)]was prepared and put on ice until it was fully cold. Ice cold lysis buffer […] was added to each Precellys® tube containing beads and bone marrow sample. Sample tubes were transferred into Precellys® machine and homogenized using 5000 rpm -2×20 seconds. The sample lysates were centrifuged at 14,000 rpm for 20 minutes at 4° C. after homogenizing.
The protein concentration was determined using Pierce™ BCA Protein Assay Kit following manufacturer's recommended protocol. The protein normalized working solution was prepared, using 30 μg protein per sample lysate for assay.
A 300 ng/ml working stock solution of recombinant BTK protein in lysis buffer was prepared, and the sample was serially diluted at 3-fold dilution (10-point assay, highest concentration was 300 ng/mL and lowest concentration was 0.015 ng/mL)
MSD plate coating: Coating antibody (biotinylated-BTK mAb) stock solution was prepared at 1 μg/mL in PBS buffer. 50 μL/well capture antibody (Biotinylated BTK mAb) solution was added, and the plates were shaken gently at ambient temperature for two hours. The plates were washed 3 times with 1× MSD Tris Wash Buffer in a plate washer (300 μL/well), and the plates were blocked with 3% MSD Blocker A (150 μL/well). The plates were incubated for an additional 1-2 hours at ambient temperature with gentle shaking. The plates were washed 3 times with 1× MSD wash buffer using plate washer. Bone marrow lysates (30 μg) at a final volume of 50 μL/well were added into the plates. The serially diluted standard samples were added to the same plates at a final volume of 50 μL/well. The plates were incubated overnight at 4° C. with gentle shaking.
The plates were washed three times with 1× MSD wash buffer (prepared from 10× concentration buffer) using plate washer. Primary detection antibody at 50 μL/well was added (BTK RpAb; 1:1000 dilution in 1% MSD Blocker A). The plates were incubated for two hours at ambient temperature with gentle shaking. The plates were washed three times with 1× MSD wash buffer using plate washer. Anti-Rabbit-SULFO-TAG secondary antibodies (50 μl/well) were added, 1:500 diluted in 1% MSD Blocker A, and the plates were incubated for one to two hours at ambient temperature. […]

[2] = target: BTK protein in human whole blood (Homo sapiens (Human), UniProt Q06187); assay: Btk protein in human whole blood MSD ELISA based assay (Btk degradation); type: cell-based; conditions: human whole blood from healthy donors, 6 hours at 37° C., half maximal degradation concentration; read-out: hWB BTK DC50
BTK protein in human whole blood, sequence (Q06187 whole entry): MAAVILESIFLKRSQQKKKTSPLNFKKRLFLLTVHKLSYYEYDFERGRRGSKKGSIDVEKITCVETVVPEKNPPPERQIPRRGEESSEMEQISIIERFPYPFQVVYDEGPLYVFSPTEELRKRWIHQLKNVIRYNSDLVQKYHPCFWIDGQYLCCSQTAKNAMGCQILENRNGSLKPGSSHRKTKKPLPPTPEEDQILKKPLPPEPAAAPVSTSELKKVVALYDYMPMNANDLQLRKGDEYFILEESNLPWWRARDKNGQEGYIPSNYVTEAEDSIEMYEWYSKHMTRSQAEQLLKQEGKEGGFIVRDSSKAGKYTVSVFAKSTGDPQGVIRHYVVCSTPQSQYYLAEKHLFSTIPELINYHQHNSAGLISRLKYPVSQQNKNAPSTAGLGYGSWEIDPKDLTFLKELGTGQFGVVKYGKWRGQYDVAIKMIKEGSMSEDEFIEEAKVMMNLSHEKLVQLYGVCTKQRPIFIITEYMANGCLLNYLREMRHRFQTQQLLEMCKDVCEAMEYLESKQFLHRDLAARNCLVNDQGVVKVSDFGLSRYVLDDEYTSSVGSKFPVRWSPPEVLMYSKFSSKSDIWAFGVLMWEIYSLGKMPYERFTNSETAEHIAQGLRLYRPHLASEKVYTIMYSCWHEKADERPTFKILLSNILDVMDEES
In short: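 Fresh healthy-donor human whole blood incubated 6 h at 37 °C with 8-point 1:4 dilutions from 3 μM (final 0.2% DMSO), in duplicate. Remaining BTK in lysates measured by MSD sandwich ELISA. DC50 by non-linear regression; Dmax as maximal degradation versus DMSO.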

BTK in mouse bone marrow, sequence (P35991 whole entry): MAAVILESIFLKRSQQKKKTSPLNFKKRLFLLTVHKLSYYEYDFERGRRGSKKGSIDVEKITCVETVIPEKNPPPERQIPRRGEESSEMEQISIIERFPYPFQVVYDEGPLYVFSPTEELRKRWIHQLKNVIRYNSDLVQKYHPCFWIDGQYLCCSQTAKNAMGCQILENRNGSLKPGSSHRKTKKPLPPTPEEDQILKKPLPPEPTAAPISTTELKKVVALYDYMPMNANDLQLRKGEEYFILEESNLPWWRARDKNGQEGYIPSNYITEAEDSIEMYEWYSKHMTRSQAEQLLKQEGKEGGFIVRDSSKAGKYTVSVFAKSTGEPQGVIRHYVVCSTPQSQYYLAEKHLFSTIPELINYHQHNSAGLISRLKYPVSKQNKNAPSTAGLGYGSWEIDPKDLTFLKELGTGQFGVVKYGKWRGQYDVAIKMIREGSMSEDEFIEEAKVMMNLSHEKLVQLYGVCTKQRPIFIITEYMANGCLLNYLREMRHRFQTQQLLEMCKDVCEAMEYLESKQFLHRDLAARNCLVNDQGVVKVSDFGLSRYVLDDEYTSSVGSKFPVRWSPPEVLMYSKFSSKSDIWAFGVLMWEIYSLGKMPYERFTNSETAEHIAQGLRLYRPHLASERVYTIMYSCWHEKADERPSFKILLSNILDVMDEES

SMILES	Mouse Bone Marrow (%), % remaining BTK [1]	DC50 [2]
Cc1cc(-c2cc(Nc3ccc(N4CCN(CCc5ccc(N6CCC(=O)NC6=O)cc5)C[C@@H]4C(C)C)cn3)ncn2)ccc1[C@@H](C)NC(=O)c1nc(C(C)(C)C)no1 [Example 13, 3-tert-butyl-N-[(1R)-1-{4-[6-({5-[(2S)-4-{2-[4-(2,4-dioxo-1,3-diazinan-1-yl)phenyl]ethyl}-2-(propan-2-yl)piperazin-1-yl]pyridin-2-yl}amino)pyrimidin-4-yl]-2-methylphenyl}ethyl]-1,2,4-oxadiazole-5-carboxamide]	26%	17.3 nM
C[C@@H](NC(=O)c1nc(C(C)(C)C)no1)c1ccc(-c2cc(Nc3ccc(N4CCN(CCc5ccc(N6CCC(=O)NC6=O)cc5)C[C@@H]4C)cn3)ncn2)cc1Cl [Example 14, 3-tert-butyl-N-[(1R)-1-{2-chloro-4-[6-({5-[(2S)-4-{2-[4-(2,4-dioxo-1,3-diazinan-1-yl)phenyl]ethyl}-2-methylpiperazin-1-yl]pyridin-2-yl}amino)pyrimidin-4-yl]phenyl}ethyl]-1,2,4-oxadiazole-5-carboxamide]	16%	7.91 nM
Cc1cc(-c2cc(Nc3ccc(N4CCN(CCc5ccc(N6CCC(=O)NC6=O)cc5)C[C@@H]4C)cc3)ncn2)ccc1[C@@H](C)NC(=O)c1nc(C(C)(C)C)no1 [Example 18]	25%	15.6 nM
Cc1cc(-c2cc(Nc3ccc(CCN4CCN(c5ccc(N6CCC(=O)NC6=O)cc5)CC4)cn3)ncn2)ccc1[C@@H](C)NC(=O)c1nc(C(C)(C)C)no1 [Example 19]	51%	3 nM
